According to patent US8278359B2, “Compositions containing amines and use thereof to treat acne or reduce the appearance of oil or pores on the skin” (Johnson & Johnson Consumer Companies, Inc., priority 2005, dated 2012):
Marks after values point to notes of the source that are not given here.

Assays:
macrophages = conditions: Bhide M V et al., Immunopharmacol. 1985; cited from earlier work
Human keratinocytes = assay: Visual contraction of keratinocytes by real time microscopy (cell area); assay type: cell-based; conditions: 0.1%
Method: Human keratinocytes and Epilife culture media (Cascade Biologics, Portland, Oreg.) were cultured at 37° C. in a humidified atmospheres of 5% CO2/95% air. Glass Cover Slides (Applied Biophysics, Troy, N.Y.) were coated with 0.01 mg/ml Laminin V (Sigma Aldirch, St Louis, Mo.) in sterile Phosphate Buffered Saline (Gibco Life Sciences, San Diego, Calif.). Human keratinocytes were prepared at a density of 0.125×10^6 cells/mL in Epilife culture media. Human keratinocytes were plated at 3.75×10^4 cells/well on a 6 well plate containing Laminin coated coverslips and cultured at 37° C. in a humidified atmospheres of 5% […] for 48 hrs. Individual coverslips were transferred to a open bath imaging chamber (Warner Instruments, Hamden, Conn.) mounted on a Leica inverted microscope (Leitz DM1L) with an attached CCD camera. Cells were perfused with Hank's Buffered Salt Solution (HBSS; Gibco Life Sciences, San Diego, Calif.) at flow rate of 1 ml/min using a peristaltic pump (Cole Parmer, Vernon Hills, Ill.). […] Cell area was determined using Scion Image software (Version 4.0.2), and reductions in cell area were reported as the ratio of cell area after treatment to cell area prior to treatment

[1] = system: GM-CSF (granulocyte macrophage stimulating factor); assay: PHA-stimulated peripheral blood lymphocyte cytokine release: GM-CSF; assay type: cell-based; conditions: Homo sapiens, 48 h, read-out: GMCSF % inh.
Text: (§1) The ability of various amines to affect the inflammatory responses was illustrated by its ability to reduce the production of cytokines by human lymphocytes stimulated with the T-cell receptor (TCR) activating agent phytohaemagglutinin (PHA) in the following assay.
(§2) Human leukocytes were collected from a healthy adult […] via leukopheresis, and adjusted to a density Of 1×10^6 cells/mL in serum free lymphocyte growth medium (ExVivo-15, Biowhittaker, Walkersville, Md.). PBLs were stimulated with 10 μg/mL PHA in the presence or absence of test samples following published methods (Hamamoto Y., et al. Exp Dermatol 2:231-235, 1993). The following compounds were evaluated N,N,N′,N′-Tetrakis(2-hydroxypropyl)ethylenediamine (THPED, available from BASF under the tradename “Quadrol” or “Neutrol”), N,N,N,N-Tetramethylethylenediamine (TEMED, available from Pfaltz & Bauer Chemicals (Waterbury, Conn.)), and Diethylenetriamine (available from Sigma-Aldrich) Following a 48 hour incubation at 37° C. with 5% CO2, the supernatant was removed and evaluated for cytokine content using commercially available multiplex cytokine detection kit.

IFN (interferon-gamma) = assay: PHA-stimulated peripheral blood lymphocyte cytokine release: IFN; assay type: cell-based; conditions: Homo sapiens, 48 h, read-out: IFN % inh.
Text: as §1, §2

tyrosinase = assay: Tyrosinase activity in lysates of treated B16 cells (DOPA, absorbance 490 nm); assay type: cell-based, murine; conditions: pH 7.2, B16 cells 48 hours, activity at 3-hours, normalized for total protein
Method: THPED was also tested for its ability to induce tyrosinase activity in B16 cells by spectroscopic measuring of the final product, melanin. B16 cells were treated with THPED at different concentrations at pH 7.2 for 48 hours and cells were then lysed in 250 μl of PBS containing 1% Triton X-100 (Sigma, St. Louis, Mo.). The lysates were collected and centrifuged at 14,000 rpm for 5 minutes at 4° C. to pellet any insoluble material. Lysates (100 μl) were transferred to a 96 well assay plate (Corning Costar, San Diego, Calif.) and mixed with 100 μl of 0.1% (w/v) DOPA in PBS. The absorbance at 490 nm was then monitored from 0 to 12 hours using a VersaMax Plate Spectrophotometer (Molecular Devices, Sunnyvale, Calif.) and SoftMax Pro analytical software (Molecular Devices, Sunnyvale, Calif.). The tyrosinase activities were normalized for total protein using the BioRad Dc Protein Assay (Bio Rad, Hercules, Calif.).

facial skin pores = assay: Clinical study: reduction of pore size on facial skin, parallel-polarized image analysis; assay type: in vivo, human; conditions: composition containing 2.5% THPED, 45 minutes
Text: A composition containing 2.5% THPED was compared to a corresponding placebo composition for the reduction of pore size on facial skin. 31 subjects were enrolled in the study, with all of the subjects completing the protocol. Table XVII discloses the formulation of the two compositions.
About 0.45-0.52 g of each composition was applied on one side of the face for each subject and allowed to dry. Each composition was applied only once to the area for the duration of this study. At baseline and 45 minutes after composition application, parallel-polarized digital images were taken of the entire face to document changes observed in pore size. Pore Size Reduction was evaluated using computer analysis of Parallel-Polarized images of the face.

Question: For `CC(O)CN(CCN(CC(C)O)CC(C)O)CC(C)O` (stereo not shown) [THPED, N,N,N′,N′-Tetrakis(2-hydroxypropyl)ethylenediamine], which “effect on macrophages in culture” value (macrophages) is on record?
Answer: Its value is “increased macrophage activation”.

Question: And the “Visual Contraction of Human Keratinocytes (reduction in cell area, Mean ± Std Dev)” value (Human keratinocytes; 2 Min)?
Answer: The value was 32.9% ±.

Question: And the “Visual Contraction of Human Keratinocytes (reduction in cell area, Mean ± Std Dev)” value (Human keratinocytes; 10 Min)?
Answer: Its value is 37.9% ± 10.7%.

Question: And the “Visual Contraction of Human Keratinocytes (reduction in cell area, Mean ± Std Dev)” value (Human keratinocytes; 20 Min)?
Answer: Its value is 47.3% ± 12.7%.

Question: And the inhibition at 10 µg/mL [1]?
Answer: The inhibition at 10 µg/mL was 10.3%.

Question: And the inhibition at 100 µg/mL [1]?
Answer: Its inhibition at 100 µg/mL is 15.8%.

Question: What about the inhibition at 10 µg/mL (IFN (interferon-gamma)) of the same compound?
Answer: Its inhibition at 10 µg/mL is 18.1%.

Question: And the inhibition at 100 µg/mL (IFN (interferon-gamma))?
Answer: The inhibition at 100 µg/mL was 37.9%.

Question: What about the “% tyrosinase activity relative to untreated control” value (tyrosinase; 0.01%) of the same compound?
Answer: The value was 104.15%.

Question: And the “% tyrosinase activity relative to untreated control” value (tyrosinase; 0.025%)?
Answer: Its value is 167.39%.

Question: What about the “% tyrosinase activity relative to untreated control” value (tyrosinase; 0.05%) of the same compound?
Answer: Its value is 201.90%.

Question: And the “% Of Pore Size Reduction over Placebo” value (facial skin pores; single application, subject responders)?
Answer: The value was 7.11%*.

Question: And the “greater pore reduction response than the placebo alone” value (facial skin pores)?
Answer: Its value is 19.4%.
